From patent publication US20150051232A1, “USE OF (RS)-S-CYCLOPROPYL-S-(4--5-(TRIFLUOROMETHYL)PYRIMIDIN-2-YL]AMINO}PHENYL)SULFOXIMIDE FOR TREATING SPECIFIC TUMOURS” (Bayer Intellectual Property GmbH, priority 2012, published 2015)

Legend:
Assay type in all cases: in vivo, humans
thyroid cancer = assay: Clinical trial in patients with thyroid cancer
Method: Patient 2006, clinical study 14856, person, papillary thyroid cancer stage IV, progressive disease on study enrollment, systemic pre-therapies with 17-AAG, Sutent, sorafenib, erlotinib and temsirolimus
Patient 1030, clinical study 14484, person, thyroid cancer stage IV, progressive disease on study enrollment, systemic pre-therapies with Adriamycin and cisplatin/carboplatin, carboplatin and Taxol, Nexavar, Sutent
Patient 2006: oral solution, ingredients micronized BAY 1000394 (0.2 mg/ml), levomenthol (synonym: 1-menthol, flavouring) macrogol (400) (synonym: polyethylene glycol (400), solubilizer), polysorbate 20 (surfactant)
Patient 1030: tablet, ingredients BAY 1000394, micronized, 5 mg/tablet, granulated mannitol (filler), microcrystalline cellulose (filler), croscarmellose (disintegrant), magnesium stearate (additive for pressing), red lacquer (coating)
Patient 2006: dosage twice a day 0.3 mg, administration protocol 28 days of treatment and 14 days of non-treatment, long-term treatment until disease progression
Patient 1030: dosage 5 mg in the morning, 10 mg in the evening, administration protocol 3 days of treatment and 4 days of non-treatment, long-term treatment until disease progression

mesotheliomas = assay: Clinical trial in patients with mesotheliomas; conditions: 3 days of treatment and 4 days of non-treatment; for duration of treatment (until disease progression) / tumour response according to RECIST 1.1: oral solution
Text: Patient 1010, epithelioid mesothelioma, progressive disease on study enrollment, systemic pre-therapies with Alimta and cisplatin, gemcitabine, doxorubicin, dekabine
Patient 1016, epithelioid mesothelioma, stage IV, progressive disease on study enrollment, systemic pre-therapies with Alimta and cisplatin, Alimta and carboplatin, Alimta and carboplatin and Avastin, Avastin, Alimta, gemcitabine
Patient 1023, pleuramesothelioma, stage IV, progressive disease on study enrollment, systemic pre-therapies with cisplatin and Alimta
Patient 1024, pleuramesothelioma, stage IV, progressive disease on study enrollment, systemic pre-therapies with cisplatin and Alimta and Avastin, Avastin, carboplatin and Alimta and doxorubicin and dekapine
Oral solution in two dose strengths, ingredients micronized BAY 1000394 (0.2 mg/ml and 4.8 mg/ml), Levomenthol (synonym: 1-menthol, flavouring), macrogol (400) (synonym: polyethylene glycol (400), solubilizer), polysorbate 20 (surfactant)
Dosage twice a day 1.2 mg (patient 1010), 4.8 mg (patient 1016) and 9.6 mg (patients 1023 and 1024), administration protocol 3 days of treatment and 4 days of non-treatment, long-term treatment until disease progression

[1] = system: cholangiocellular carcinoma; assay: Clinical trial in a patient with cholangiocellular carcinoma; conditions: 3 days of treatment and 4 days of non-treatment
Method: Patient 1026, cholangiocellular carcinoma stage IV, progressive disease on study enrollment, systemic pre-therapies with cisplatin/oxaliplatin and Gemzar, 5-fluorouracil and folinic acid
tablet, ingredients BAY 1000394, micronized, 5 mg/tablet, granulated mannitol (filler), microcrystalline cellulose (filler), croscarmellose (disintegrant), magnesium stearate (additive for pressing), red lacquer (coating)
Dosage twice a day 5 mg, administration protocol 3 days of treatment and 4 days of non-treatment, long-term treatment until disease progression

[2] = system: squamous cell carcinoma of the oesophagus; assay: Clinical trial in a patient with squamous cell carcinomas of the oesophagus; conditions: 28 days of treatment and 14 days of non-treatment
Method: Patient 3002, squamous cell carcinoma of the oesophagus stage IV, progressive disease on study enrollment, systemic pre-therapy with cisplatin and Xeloda
Oral solution, ingredients micronized BAY 1000394 (0.2 mg/ml), levomenthol (synonym: 1-menthol, flavouring) macrogol (400) (synonym: polyethylene glycol (400), solubilizer), polysorbate 20 (surfactant)
Dosage twice a day 0.5 mg, administration protocol 28 days of treatment and 14 days of non-treatment, long-term treatment until disease progression

[3] = patient 1030, thyroid cancer stage IV, tablet, 5 mg in the morning, 10 mg in the evening, 3 days of treatment and 4 days of non-treatment
[4] = patient 2006, papillary thyroid cancer stage IV, oral solution, twice a day 0.3 mg, 28 days of treatment and 14 days of non-treatment
[5] = patient 1010, epithelioid mesothelioma, twice a day 1.2 mg
[6] = patient 1016, epithelioid mesothelioma stage IV, twice a day 4.8 mg
[7] = patient 1023, pleuramesothelioma stage IV, twice a day 9.6 mg
[8] = patient 1024, pleuramesothelioma stage IV, twice a day 9.6 mg
[9] = patient 1026, cholangiocellular carcinoma stage IV, tablet, twice a day 5 mg
[10] = patient 3002, squamous cell carcinoma of the oesophagus stage IV, oral solution, twice a day 0.5 mg

C[C@@H](O)[C@@H](C)Oc1nc(Nc2ccc(S(=N)(=O)C3CC3)cc2)ncc1C(F)(F)F (mixture of isomers) [Compound A, (RS)—S-cyclopropyl-S-(4-{[4-{[(1R,2R)-2-hydroxy-1-methylpropyl]oxy}-5-(trifluoromethyl)pyrimidin-2-yl]amino}phenyl)sulphoximide]
Disease stabilization: treatment outcome in thyroid cancer patients (thyroid cancer; daily dose of 0.6 mg divided into two identical dosage units, 28 days of treatment and 14 days of non-treatment) | treatment outcome in thyroid cancer patients (thyroid cancer; daily dose of 15 mg (5 mg in the morning, 10 mg in the evening), 3 days of treatment and 4 days of non-treatment) | treatment outcome in mesothelioma patients (mesotheliomas; daily dose of 2.4 mg, 9.6 mg and 19.2 mg divided into two identical dosage units) | treatment outcome in a patient suffering from cholangiocellular carcinoma ([1]; daily dose of 10 mg divided into two identical dosage units) | treatment outcome in a patient suffering from squamous cell carcinoma of the oesophagus ([2]; daily dose of 1 mg divided into two identical dosage units)

C[C@@H](O)[C@@H](C)Oc1nc(Nc2ccc([S@](=N)(=O)C3CC3)cc2)ncc1C(F)(F)F [BAY 1000394, (R)—S-cyclopropyl-S-(4-{[4-{[(1R,2R)-2-hydroxy-1-methylpropyl]oxy}-5-(trifluoromethyl)pyrimidin-2-yl]amino}phenyl)sulphoximide]
more than 4 months: duration of treatment (until disease progression) [1, 9]
more than 2 months: duration of treatment (until disease progression) [2, 10]
more than 3 months: duration of treatment (until disease progression) (thyroid cancer; [3]) | duration of treatment (until disease progression) (mesotheliomas; [6])
about 2 months: duration of treatment (until disease progression) (thyroid cancer; [4]) | duration of treatment (until disease progression) (mesotheliomas; [7]) | duration of treatment (until disease progression) (mesotheliomas; [8])
about 4 months: duration of treatment (until disease progression) (mesotheliomas; [5])
disease stabilization: tumour response according to RECIST 1.1 (thyroid cancer; [3]) | tumour response according to RECIST 1.1 (thyroid cancer; [4]) | tumour response according to RECIST 1.1 (mesotheliomas; [5]) | tumour response according to RECIST 1.1 (mesotheliomas; [6]) | tumour response according to RECIST 1.1 (mesotheliomas; [7]) | tumour response according to RECIST 1.1 (mesotheliomas; [8]) | tumour response according to RECIST 1.1 [1, 9] | tumour response according to RECIST 1.1 [2, 10]
